The text below walks through data of US20240226026A1, “BRANCHED TAIL LIPID COMPOUNDS AND COMPOSITIONS FOR INTRACELLULAR DELIVERY OF THERAPEUTIC AGENTS” (ModernaTX, Inc., priority 2021, published 2024).

Series [1] can be described thus: Particle size (diameter) and polydispersity index of lipid nanoparticles. The series is classed as physicochemical. The note with it: nanoparticles comprising the lipid. The procedure, abridged:
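Size and PDI measured by dynamic light scattering (Zetasizer Nano ZS) in 1×PBS. LNPs comprised DSPC, cholesterol, PEG lipid and ionizable lipid, some with rhodamine-DOPE.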

The nature of series [2]: Encapsulation efficiency (% EE) of lipid nanoparticles. The series is classed as physicochemical. As to conditions: nanoparticles comprising the lipid. Summed up: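 RNA-loaded LNPs were diluted to ~5 μg/mL in TE buffer (pH 7.5) and incubated 15 min at 37 °C with buffer or 2% Triton X-100 solution, then RiboGreen fluorescence was read (ex ~480/em ~520 nm). After blank subtraction, free RNA % = intact-sample fluorescence ÷ Triton-disrupted fluorescence.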

The nature of series [3]: Lipid nanoparticle surface hydrophobicity by Generalized Polarization by Laurdan (N-GP). As to conditions: for Lipid nanoparticle surface hydrophobicity (N-GP*): Table 2a, Laurdan, higher N-GP indicates a less polar surface. The series is classed as physicochemical. The procedure, abridged: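 Laurdan, a fluorescent aminonaphthalene ketone lipid, is post-inserted into the nanoparticle surface. Its fluorescence spectrum is collected and converted to a normalized Generalized Polarization (N-GP) value as the measure of surface hydrophobicity.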

A short description of series [4]: Apparent pKa of lipid nanoparticles. The series is classed as physicochemical. The note with it: for Apparent pKa: Table 2a, nanoparticles comprising the lipid.
The next series has as its system CD-1 mice. Kind of series: Expression of hEPO induced by LNPs (mRNA encoding hEPO) administered to mice. In kind it is in vivo. The note with it: Table 4a, serum, 6 h after intravenous injection. Summed up:
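LNPs of DSPC, cholesterol, PEG lipid and test ionizable lipid carrying hEPO mRNA were given intravenously. Serum hEPO was measured 6 h post-injection by ELLA Simple Plex immunoassay calibrated to the 2nd IRP WHO standard.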

[5] abbreviates: Table 2a, DSPC, cholesterol, PEG lipid.

As to `CCCCCC(CCCCC)CCOC(=O)CCCCCCCN(CCCCCCCC(=O)OCCC(CCCCC)CCCCC)CCCNS(=O)(=O)CC` [Compound 26], the PDI is recorded as 0.113 in series [1] (Table 2a) and 0.134 in series [1] (Table 3). Further, the “Diameter (nm)” value in series [1] (setting [5]) is 84.8 nm; in series [1] (Table 3), 94.5 nm. In addition, the “% EE” value in series [2] (Table 2a) is on record as 86.3%; in series [2] (Table 3) it was 95.0%. Besides, in series [3], the “Lipid nanoparticle surface hydrophobicity (N-GP*)” value turned out to be 1.09. For the same compound, the “Apparent pKa” value in series [4] was 6.645. Moreover, the “Avg. hEPO Concentration (mIU/mL) ± Avg. SD” value in the series with CD-1 mice was found to be 1.42E+07 ± 3.66E+05 mIU/mL.

For `CCCCCC(CCCCC)CCOC(=O)CCCCCCCN(CCCCCCCC(=O)OCCC(CCCC)CCCC)CCCNc1ncccc1N` [Compound 14], the results for the “Diameter (nm)” value in series [1] (Table 2b) and in series [1] (Table 3) were 184.7 nm and 111.7 nm, respectively. In addition, the PDI in series [1] (Table 2b) stood at 0.366; in series [1] (Table 3), 0.282. The entries for the “% EE” value in series [2] (Table 2b) and in series [2] (Table 3) were 94.4% and 98.6%, respectively. Also, in series [3] (Table 2b, nanoparticles comprising the lipid), the “LNP surface hydrophobicity (N-GP*)” value is reported as 1.00. Also, the “Apparent pKa 95% CI” value in series [4] (Table 2b, 95% confidence interval) is reported as 6.808 to 6.931. The “Avg. hEPO Concentration (mIU/mL)* ± Avg. SD” value in the series on CD-1 mice (ELLA Simple Plex Assay) was 5.96E+05 ± 9.17E+03 mIU/mL.

Turning to `CCCCCC(CCCCC)CCOC(=O)CCCCCCCN(CCCCCCCC(=O)OCCC(CCCCC)CCCCC)CCCNS(=O)(=O)CCOC` [Compound 24], the PDI in series [1] (Table 2a) came to 0.112; in series [1] (Table 3), 0.17. Also, the “Diameter (nm)” value is recorded as 87.9 nm in series [1] (setting [5]) and 93.8 nm in series [1] (Table 3). In addition, the “% EE” value came out at 82.9% in series [2] (Table 2a) and 95.4% in series [2] (Table 3). Further, in series [3], the “Lipid nanoparticle surface hydrophobicity (N-GP*)” value was found to be 1.05. In addition, the “Apparent pKa” value in series [4] was determined as 6.725. Besides, in the series on CD-1 mice, the “Avg. hEPO Concentration (mIU/mL) ± Avg. SD” value is reported as 8.30E+06 ± 1.36E+05 mIU/mL.
